Tests used:
moDCs = assay: moDC phenotyping by flow cytometry; type: cell-based, human; details: moDCs generated in the presence of TGF-β1
Experimental: (§1) CD14^+ cells were isolated from PBMC using the Miltenyi CD14^+ beads. Monocyte-derived DCs (moDCs) were obtained from CD14+ cells cultured in GM-CSF and IL-4 as previously described (55). At day 4 of moDCs differentiation, TGF-β1 (10 ng/ml R&D systems) was added to the moDCs to generate the TGF-β-DCs (or both TGF-β1 and galunisertib). At day 6, 2 days after TGF-1 addition, moDCs were phenotyped (in 3 donors; See Table 2 for antibodies list) and co-cultured with eFluor670 (eBioscience)-labelled U1 at 3:1 U1:DC ratio (5 donors). After 18 hrs of co-culture, cells were stained for p24 intracellularly as described above.

U1 cells [1] = assay: DC-driven HIV reactivation from U1 cells (moDC co-culture); type: cell-based; details: moDCs treated with TGF-β1 10 ng/ml for last 2 days, with or without galunisertib; 18 hrs co-culture
Experimental: as §1

ACH-2 cells = assay: PMA-induced HIV reactivation in ACH-2 cells, intracellular p24 staining; type: cell-based
Experimental: ACH2 cells and U1 cells were obtained through the NIH HIV Reagent Program, Division of AIDS, NIAID, NIH (contributed by Dr. Thomas Folks). […] In the HIV latency reactivation conditions, PMA (Phorbol 12-myristate 13-acetate, SigmaAldrich) was added at 100 ng/ml together with galunisertib or TGF-β1. After 18 hrs, cells were stained intracellularly for p24 using the KC57 antibody (NIH HIV Reagent Program) as previously described (74).

U1 cells [2] = assay: PMA-induced HIV reactivation in U1 cells, intracellular p24 staining; type: cell-based; details: U1 cells
Experimental: ACH2 cells and U1 cells were obtained through the NIH HIV Reagent Program, Division of AIDS, NIAID, NIH (contributed by Dr. Thomas Folks). Cells ([…]) were cultured in triplicates in RPMI with 10% FBS and Pen/Strep in presence of TGF-β1 (10 ng/ml R&D systems), TGF-β1 and galunisertib (1 μM MedChemExpress), galunisertib alone or mock treated. In the HIV latency reactivation conditions, PMA (Phorbol 12-myristate 13-acetate, SigmaAldrich) was added at 100 ng/ml together with galunisertib or TGF-β1. After 18 hrs, cells were stained intracellularly for p24 using the KC57 antibody (NIH HIV Reagent Program) as previously described (74).

primary CD4+ T cells = assay: Primary CD4+ T cell model of HIV-1 latency, p24 ICS; type: cell-based, human; details: primary CD4+ T cells infected with HIV ADA; PMA 100 ng/ml; TGF-β1 10 ng/ml or galunisertib 1 μM
Experimental: Next, the impact of TGF-β1 on a primary model of HIV-1 latency was tested using freshly isolated CD4+ T cells. The experiment was based on the model by Berkhout and colleagues (50) with some modifications (FIG. 1F). Specifically, CD4+ T cells were isolated from HIV-1 uninfected, de-identified donor PBMC and activated them with PHA and IL-2 for 3 days before infection via spinoculation with HIV ADA. After extensive wash of the viral inoculum, cells were cultured 48 hrs in presence of T20 (enfuvirtide) to avoid viral spread beyond the cells with initial integrations. The overall initial infection achieved was very low despite the spinoculation step (˜0.1% of p24-gag+ cells, FIGS. 3A-3B).
Blood from de-identified donors was obtained from the New York Blood Bank and used as source of CD4 T cells for the primary model of HIV latency in vitro. Total CD4+ T cells were isolated with the CD4 T cells isolation kit (Miltenyi) and activated with 5 μg/ml of PHA and 50 U/ml of IL-2 for 3 days. After washing out the PHA, cells were infected with 200TCID50 of HIV-ADA (NIH HIV Reagent Program) in 12 or 24 wells/plates and spinoculated at 1200 g for 2 hrs at 25° C. After additional 3 hrs of incubation at 37° C., viral inoculum was washed and cells plated in presence of T20 (Enfurtivide acetate salt, 1 μM NIH AIDS reagent program). […]

Substance: TGF-β1: exogenous TGF-β1 cytokine (R&D systems) added to cultures at 10 ng/ml
- DEC-205 expression on moDCs (moDCs): significantly lower
- frequency of p24-gag+ U1 cells in cocultures with TGF-β1-treated DCs versus untreated DCs (U1 cells [1]): significantly less
- decrease of the frequency of p24-gag+ cells in PMA-stimulated cultures (ACH-2 cells; ACH-2 cells, PMA 100 ng/ml, TGF-β1 10 ng/ml): ~20%
- baseline p24-gag levels in absence of PMA (ACH-2 cells; ACH-2 cells, TGF-β1 10 ng/ml): smaller but consistent decrease
- effect on p24+ cells in X-Vivo 15 medium without FBS (ACH-2 cells; control experiments, U1 and ACH-2, no FBS): more pronounced
- frequency of p24-gag+ cells in unstimulated cultures (U1 cells [2]; no PMA, TGF-β1 10 ng/ml or galunisertib 1 μM alone): below the baseline level
- reduction of the PMA driven increase in the frequency of p24-gag+ cells (U1 cells [2]; PMA 100 ng/ml, TGF-β1 10 ng/ml, 18 hrs): ~20%
- PMA-induced frequency of p24-gag+ cells (primary CD4+ T cells): significantly inhibited

— patent US20240197712A1, “TGF-BETA INHIBITION FOR IMMUNODEFICIENCY VIRUS REACTIVATION FROM LATENCY, ENHANCEMENT OF IMMUNODEFICIENCY VIRUS-SPECIFIC RESPONSES AND IMMUNODEFICIENCY VIRUS CURE” (Northwestern University, priority 2022, published 2024)
